From ChEMBL document CHEMBL5260817, “Polyamine-based analogs and conjugates as antikinetoplastid agents” (Eur J Med Chem, 2017) come the findings set out here.

One experiment deals with KB. Put plainly: Anticancer activity against human KB cells assessed as cell growth inhibition. Type of experiment: functional, cell-based.
Experiment [1] concerns Leishmania donovani. Kind of experiment: Antiprotozoal activity against Leishmania donovani infected in mouse macrophage cell measured after 72 hrs. In kind it is functional, organism-based.
For experiment [2], the system named is Trypanosoma brucei. Kind of experiment: Antiprotozoal activity against Trypanosoma brucei. Type of experiment: functional, organism-based.
For experiment [3], the system named is Leishmania donovani. Kind of experiment: Antiprotozoal activity against Leishmania donovani promastigote assessed as lethality at 10 uM relative to control. In kind it is functional.
The test system of experiment [4] is Trypanosoma brucei. Kind of experiment: Antiprotozoal activity against Trypanosoma brucei […] assessed as lethality at 10 uM relative to control. In kind it is functional.
Experiment [5] is described as follows: Inhibition of TryR (unknown origin) assessed as inhibition constant. Set-up: species or system Bacteria.
A short description of experiment [6]: Inhibition of TryR (unknown origin) assessed as inhibition constant by FRET assay.
The subject of the next experiment is Bacteria. Kind of experiment: Inhibition of TryS (unknown origin) at 10 uM relative to control.
Experiment [7] has as its system Trypanosoma brucei brucei. Put plainly: Antiprotozoal activity against Trypanosoma brucei brucei Lab 110 EATRO strain. In kind it is functional, organism-based.
The test system of experiment [8] is Trypanosoma brucei rhodesiense. Kind of experiment: Antiprotozoal activity against Trypanosoma brucei rhodesiense. In kind it is functional, organism-based.
Experiment [9] deals with Trypanosoma cruzi. Put plainly: Antiprotozoal activity against Trypanosoma cruzi epimastigote at 10 uM relative to control. Type of experiment: functional.
Experiment [10] has as its target T1, Trypanothione reductase (Trypanosoma cruzi, UniProt P28593). Put plainly: Inhibition of Trypanosoma cruzi TryR assessed as inhibition constant.
The test system of experiment [11] is Trypanosoma brucei. Put plainly: Trypanocidal activity against Trypanosoma brucei trypomastigotes. In kind it is functional, organism-based.
Experiment [12] has as its system Trypanosoma cruzi. Put plainly: Antiprotozoal activity against Trypanosoma cruzi measured after 24 hrs. Type of experiment: functional, organism-based.
The test system of experiment [13] is Leishmania donovani. Kind of experiment: Antiprotozoal activity against Leishmania donovani infected in mouse macrophage cell. Type of experiment: functional, organism-based.
Experiment [14] deals with Leishmania donovani. Put plainly: Leishmanicidal activity against Leishmania donovani. In kind it is functional, organism-based.
The next experiment relates to MRC5. Put plainly: Anticancer activity against human MRC5 cells assessed as cell growth inhibition. Type of experiment: functional, cell-based.
The test system of a further experiment is Leishmania infantum. Put plainly: Antiprotozoal activity against Leishmania infantum amastigotes measured after 7 days by microscopic analysis. In kind it is functional, organism-based. Particulars: 168 h.
Experiment [15] deals with Trypanosoma cruzi. Kind of experiment: Antiprotozoal activity against Trypanosoma cruzi amastigotes measured after 4 days. Particulars: 96 h. Type of experiment: functional, organism-based.
The subject of experiment [16] is Trypanosoma brucei. Put plainly: Antiprotozoal activity against Trypanosoma brucei trypomastigotes measured after 4 days by MTT assay. Type of experiment: functional, organism-based. The settings on record: 96 h. For orientation: Tetrazolium assays rely on reduction of a dye to a coloured formazan, in cell work by metabolically active cells.
Experiment [17] concerns the target T1, Trypanothione reductase. Put plainly: Inhibition of Trypanosoma cruzi TryR expressed in escherichia coli in presence of NADPH.
Experiment [18] is described as follows: Inhibition of Trypanosoma MetRS.
Experiment [19] can be described thus: Inhibition of Trypanosoma brucei MetRS.
Experiment [20] has as its system Trypanosoma cruzi. Kind of experiment: Antiprotozoal activity against Trypanosoma cruzi infected in mouse Peritoneal macrophage cell assessed as growth inhibition at 0.8 uM measured after 4 days relative to control. In kind it is functional. Particulars: 96 h, time 4 day.
For experiment [21], the system named is Trypanosoma cruzi. Kind of experiment: Antiprotozoal activity against Trypanosoma cruzi infected in mouse assessed as survival rate at 10 mg/kg, po administered 3 times daily on day 6 and 7 then twice daily from day 8 to 12. In kind it is functional. Particulars: time 7 day.
In experiment [22] the test system is Trypanosoma cruzi. Put plainly: Antiprotozoal activity against Trypanosoma cruzi MG strain epimastigotes. Type of experiment: functional, organism-based.
The test system of experiment [23] is Trypanosoma cruzi. Put plainly: Antiprotozoal activity against Trypanosoma cruzi JEM strain epimastigotes. Type of experiment: functional, organism-based.
The test system of experiment [24] is Trypanosoma cruzi. Kind of experiment: Antiprotozoal activity against Trypanosoma cruzi CL-B5 strain epimastigotes. Type of experiment: functional, organism-based.
For experiment [25], the system named is Trypanosoma cruzi. Put plainly: Antiprotozoal activity against Trypanosoma cruzi CL-B5 strain amastigotes. Type of experiment: functional, organism-based.
In experiment [26] the test system is Trypanosoma cruzi. Put plainly: Antiprotozoal activity against Trypanosoma cruzi trypomastigotes assessed as growth inhibition at 1.6 uM relative to control. Type of experiment: functional.
The subject of experiment [27] is Trypanosoma cruzi. Kind of experiment: Antiprotozoal activity against Trypanosoma cruzi […]. Type of experiment: functional, organism-based.
Experiment [28] relates to Leishmania donovani. Kind of experiment: Antiprotozoal activity against Leishmania donovani MHOM/IN/1978/UR6 strain promastigotes assessed as parasite growth inhibition. In kind it is functional, organism-based.
Experiment [29] relates to Leishmania donovani. Put plainly: Antiprotozoal activity against Leishmania donovani WR555 infected in mouse liver assessed as parasite growth inhibition at 10 mg/kg relative to control. Type of experiment: functional.
Experiment [30] has as its system Leishmania donovani. Kind of experiment: Antiprotozoal activity against Leishmania donovani WR555 infected in mouse liver assessed as parasite growth inhibition at 15 mg/kg relative to control. In kind it is functional.
In experiment [31] the test system is Leishmania donovani. Put plainly: Antiprotozoal activity against Leishmania donovani WR555 assessed as growth inhibition at 1 uM relative to control. Type of experiment: functional.
For experiment [32], the system named is Trypanosoma brucei. Kind of experiment: Trypanocidal activity against Trypanosoma brucei K 243-As-10-3 strain. Type of experiment: functional, organism-based.
The test system of experiment [33] is Trypanosoma brucei. Put plainly: Trypanocidal activity against Trypanosoma brucei K 269 strain. In kind it is functional, organism-based.
For experiment [34], the system named is Trypanosoma brucei. Put plainly: Trypanocidal activity against Trypanosoma brucei K 243 strain. In kind it is functional, organism-based.
Experiment [35] relates to Trypanosoma brucei. Put plainly: Trypanocidal activity against Trypanosoma brucei Lab 110 strain. In kind it is functional, organism-based.
Experiment [36] concerns Trypanosoma cruzi. Kind of experiment: Antiprotozoal activity against Trypanosoma cruzi Y strain epimastigotes. Type of experiment: functional, organism-based.

Converted amounts (≈) assume the structure as drawn. A value given as a limit tells only on which side of the number the result lay.

T1 sequence (P28593 whole entry): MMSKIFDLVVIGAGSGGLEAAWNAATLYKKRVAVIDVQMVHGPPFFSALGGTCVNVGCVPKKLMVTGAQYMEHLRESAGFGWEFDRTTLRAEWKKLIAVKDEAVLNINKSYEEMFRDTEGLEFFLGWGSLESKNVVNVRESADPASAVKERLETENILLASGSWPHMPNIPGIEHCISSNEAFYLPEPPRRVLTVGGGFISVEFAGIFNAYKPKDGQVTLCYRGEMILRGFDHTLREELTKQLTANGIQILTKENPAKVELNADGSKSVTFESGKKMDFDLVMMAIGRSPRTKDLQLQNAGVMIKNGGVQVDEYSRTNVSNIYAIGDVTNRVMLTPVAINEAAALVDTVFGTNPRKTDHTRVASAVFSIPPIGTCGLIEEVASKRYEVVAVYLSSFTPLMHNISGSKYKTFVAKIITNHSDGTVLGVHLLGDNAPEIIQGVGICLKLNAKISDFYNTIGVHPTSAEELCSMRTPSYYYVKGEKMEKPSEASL

One may read the IC50 as the concentration at which inhibition is half-maximal. In the case of `O=C(O)CCCCCN1CSC(=S)N(CCCCCCN2CN(CCCCCC(=O)O)CSC2=S)C1`, the IC50 is 16.1 µM in the experiment on KB, 6.74 µM in the experiment with Leishmania donovani [1] and 0.36 µM in the experiment on Trypanosoma brucei [2].
Turning to `COc1ccc2nc3cc(Cl)ccc3c(NCCNCCCNCCNc3c4ccc(Cl)cc4nc4ccc(OC)cc34)c2c1`, the Activity in the experiment on Leishmania donovani [3] and with Trypanosoma brucei [4] was 99% in each case.
What is called Ki is a measure of affinity in units of concentration, obtained from inhibition or displacement. For `O=C(NCCCNCCCCNCCCNC(=O)c1cnc2cc(C(F)(F)F)ccc2c1O)c1cnc2cc(C(F)(F)F)ccc2c1O`, the Ki in experiment [5] and in [6] was 0.75 µM throughout.
Usually inhibition stands for the change of the read-out against control, counted positive when it falls. For the compound `NCCCCNCCCNC(=O)CN1C(=O)Cc2c([nH]c3ccc(Br)cc23)-c2ccccc21`, the inhibition with Bacteria came out at 22%.
`N=C(N)c1ccc(N2CCCN(c3ccc(C(=N)N)cc3)CC2)cc1` came in with a 50% inhibitory concentration (IC50) in experiment [7] of 0.002 µM.
The compound `CN1CCN(CCCNc2cc(Cl)ccc2Sc2ccccc2)CC1` came in with an IC50 in experiment [8] of 0.98 µM. Also, in the experiment with Trypanosoma cruzi [9], the inhibition at 10 µM stood at 85%. For the same compound, the Ki on Trypanothione reductase [10] amounted to 27 µM.
As for `O=C1CC[C@]23/C=C/C(=O)NCCCCNCCCNC(=O)/C=C/c4ccc(c2c4)O[C@@H]3C1`, the Ki in [5] worked out at 114 µM. In the experiment with Trypanosoma brucei [11], this compound had an IC50 of 65 µM.
In the experiment with Trypanosoma cruzi [12], `CCCCCCCCCCC(O)CNCCN` (stereo not drawn) displayed an IC50 of 31.2 µg/mL (≈ 128 µM).
For `CCCCCCCCCCCCCCCCNc1c(NCC[N+](C)(C)C)c(=O)c1=O`, the IC50 in the experiment with Leishmania donovani [13] and with Leishmania donovani [14] was greater than 12 µM throughout.
Turning to `COc1ccc2nc3cc(Cl)ccc3c(NCCCN(CCCNc3c4ccc(Cl)cc4nc4ccc(OC)cc34)C(=O)C(NC(=O)OC(C)(C)C)C(C)C)c2c1` (stereo not drawn), the IC50 was greater than 3.13 µM in the experiment with MRC5, less than 1.56 µM in the experiment on Leishmania infantum, less than 1.56 µM in the experiment on Trypanosoma cruzi [15] and less than 1.56 µM in the experiment on Trypanosoma brucei [16].
In the case of `O=C1NC(=O)C(c2c[nH]c3ccccc23)=C1NCCCNCCCNC1=C(c2c[nH]c3ccccc23)C(=O)NC1=O`, the IC50 at Trypanothione reductase [17] was greater than 57 µM.
For `Fc1ccc2[nH]c(NCCCN[C@@H]3CCNc4c(Cl)cc(Cl)cc43)nc2n1`, the Ki in experiment [18] and in experiment [19] was 0.002 µM each time. Besides, the IC50 in experiment [19] was found to be 0.002 µM; in the experiment on Trypanosoma brucei [2] it was 0.0004 µM.
In the case of `Clc1ccc(Sc2ccccc2)c(CNCCCN2CCN(CCCNCc3cc(Cl)ccc3Sc3ccccc3)CC2)c1`, the inhibition at 0.8 µM in the experiment with Trypanosoma cruzi [20] came out at 90%.
As for `CN(C)CCCN1CCN(C(=O)Cc2ccccc2)CC1`, the Activity in the experiment with Trypanosoma cruzi [21] was determined as 90%.
For the compound `CCCCCCCCCCCCCCC(CN)NC(=O)OC(C)(C)C` (stereo not drawn), the IC50 in the experiment with Trypanosoma cruzi [22] came to 10 µM; with Trypanosoma cruzi [23], 10 µM; in the experiment on Trypanosoma cruzi [24], 2 µM; in the experiment with Trypanosoma cruzi [25] it was 2 µM.
Turning to `C1CCC(CCCNCCCN2CCN(CCCNCCCC3CCCCC3)CC2)CC1`, the inhibition at 1.6 µM in the experiment with Trypanosoma cruzi [26] turned out to be 70%.
In turn, `CCCCN(CCCC)CCCN` displayed an IC50 with Trypanosoma cruzi [27] of 4.66 µM.
Broadly, the inhibition in vivo is the relative decrease from the control value, in per cent. Turning to `c1ccc(CNCCCNCCCCCCCNCCCNCc2ccccc2)cc1`, the IC50 was determined as 18 µM in the experiment with Leishmania donovani [28]; 10 µM in the experiment on Trypanosoma brucei [32]; 10 µM in the experiment with Trypanosoma brucei [33]; 10 µM in the experiment on Trypanosoma brucei [34]; 10 µM in the experiment on Trypanosoma brucei [35]. The inhibition in vivo at 10 mg/kg in the experiment with Leishmania donovani [29] worked out at 65%. Further, the inhibition in vivo at 15 mg/kg in the experiment with Leishmania donovani [30] amounted to 99.9%. Also, the inhibition at 1 µM with Leishmania donovani [31] worked out at 77%.
`NCCC(=O)CN`: the IC50 in the experiment on Trypanosoma cruzi [36] was determined as 1180 µM.
